This note sets out measurements from patent US9393221B2, “Methods and compounds for reducing intracellular lipid storage” (THE GENERAL HOSPITAL CORPORATION, priority 2011, dated 2016).

Structures can show the parent of a compound that is named as a salt.

The subject of one test is ATGL-KO iPSCs. Nature of the test: High throughput iPSC chemical screening, Oil Red O (ORO) lipid accumulation. For Z-score: test concentration or dose not given here. The format is cell-based, mouse.
Settings: not given
Consider `Cc1c(C)c2c(c(C)c1O)CC[C@@](C)(CCC[C@H](C)CCC[C@H](C)CCCC(C)C)O2` [Tocopherol (R,S)], for which the Z-score is −1.721.

Take `C[C@]12CC[C@H](O)C[C@@H]1CC[C@@H]1[C@@H]2CC[C@]2(C)C(=O)CC[C@@H]12` [Epiandrosterone]: the Z-score is on record as −0.835.

Still in this test, the particulars now being: glycolytic switch compounds.
For `CCN(CC)CCOc1ccc(C(=C(Cl)c2ccccc2)c2ccccc2)cc1.O=C(O)CC(O)(CC(=O)O)C(=O)O` [Clomiphene citrate (Z,E), reference compound], the “Rank in normalized ORO score from screen” value came to 928.

Take `CN1CCN(C(c2ccccc2)c2ccc(Cl)cc2)CC1` (stereo not shown) [(1-[(4-Chlorophenyl)phenyl-methyl]-4-methylpiperazine)]: the “Rank in normalized ORO score from screen” value came to 720.

Staying with this test, now noted: normalized ORO level vs DMSO-treated cells; compound present during 7 days differentiation, 96-well; negative = decrease in lipid accumulation.
As to `O=C1CC[C@@]2(O)[C@H]3Cc4ccc(O)c5c4[C@@]2(CCN3CC2CC2)[C@H]1O5` [Naltrexone hydrochloride dihydrate], the Z-score is −0.609.

Molecule `CN1CCc2cc3c(cc2C1O)OCO3` (stereo not shown) [Hydrastinine hydrochloride] returned a Z-score of −0.5549.

In turn, `COc1cc2nc(N3CCN(C(=O)c4ccco4)CC3)nc(N)c2cc1OC` [Prazosin hydrochloride] showed a Z-score of 0.6597.

Consider `COc1ccc(C(=O)c2ccccc2O)c(O)c1` [Dioxybenzone], for which the Z-score is listed as −1.6584.

In the case of `CC(C)(Oc1ccc(C2CC2(Cl)Cl)cc1)C(=O)O` (stereo not shown) [Ciprofibrate], the Z-score is reported as −0.5993.

`CN(C)CCCSC(=N)N` [Dimaprit dihydrochloride] registered a Z-score of −1.2574.

For `CC1CS(=O)(=O)CCN1/N=C/c1ccc([N+](=O)[O-])o1` (stereo not shown) [Nifurtimox], the Z-score amounted to 0.2485.

`Nc1c2c(nc3ccccc13)CCCC2` [Tacrine hydrochloride hydrate]: the Z-score is −2.143.

For `C#CCN(C)[C@H](C)Cc1ccccc1` [Selegiline hydrochloride], the Z-score is listed as 2.279.

For the molecule `CC(C)(O/N=C(\C(=O)N[C@@H]1C(=O)N2C(C(=O)[O-])=C(C[n+]3ccccc3)CS[C@H]12)c1csc(N)n1)C(=O)O` [Ceftazidime pentahydrate], the Z-score turned out to be 0.00611.

As to `COc1ccccc1N1CCN(CC(O)COc2cccc3ccccc23)CC1` (stereo not shown) [Naftopidil dihydrochloride], the Z-score was −0.9212.

Molecule `C=CCOC(Cn1ccnc1)c1ccc(Cl)cc1Cl` (stereo not shown) [Enilconazole] had a Z-score of −0.0014.

Consider `Nc1[nH]c(=O)ncc1F` [Flucytosine], for which the Z-score was −0.8908.

The molecule Tyloxapol yielded a Z-score of 0.9571.

Take `NC(Cn1ccc(=O)c(O)c1)C(=O)O` (stereo not shown) [Mimosine]: the Z-score was 0.9075.

As for `CCC(=O)O[C@]1(C(=O)CCl)[C@@H](C)C[C@H]2[C@@H]3CCC4=CC(=O)C=C[C@]4(C)[C@@]3(F)[C@@H](O)C[C@@]21C` [Clobetasol propionate], the Z-score is 2.1955.

With `COc1ccc2[nH]cc(CCNC(C)=O)c2c1` [Melatonin], the Z-score is listed as 0.08162.

`COc1cc(OC)c(C(=O)CCCN2CCCC2)c(OC)c1` [Buflomedil hydrochloride] registered a Z-score of −0.0451.

On to `CC1=C(CC(=O)O)c2cc(F)ccc2/C1=C\c1ccc([S+](C)[O-])cc1` (stereo not shown) [Sulindac], for which the Z-score is given as 1.451.

As to `CC(=O)NC1[C@@H](O)OC(CO)[C@@H](O)[C@H]1O[C@H](C)C(=O)O` (stereo in doubt) [Muramic acid, N-acetyl], the Z-score came out at 1.128.

`CCN(CC)C(=S)SSC(=S)N(CC)CC` [Disulfiram] displayed a Z-score of 15.5036.

In turn, `COc1ccc(CN2CCNCC2)c(OC)c1OC` [Trimetazidine dihydrochloride] gave a Z-score of 0.9654.

Consider `C=C1C[C@]23C[C@@]1(O)CC[C@H]2[C@@]12C=C[C@H](O)[C@@](C)(C(=O)O1)[C@H]2[C@@H]3C(=O)O` [Gibberellic acid], for which the Z-score amounted to 0.8089.

For `C[C@]12CCC(=O)C=C1CC[C@@H]1[C@@H]2C(=O)C[C@@]2(C)[C@H]1CC[C@]2(O)C(=O)CO` [Cortisone], the Z-score is reported as −1.8033.

Regarding `COc1c2ccoc2nc2c(OC)c(OCC(O)C(C)(C)O)ccc12` (stereo not shown) [Evoxine], the Z-score was −0.3336.

In turn, `C=C1C/C(=C/C)C(=O)O[C@@H]2CCN3CC=C(COC(=O)[C@]1(C)O)[C@H]23` [Seneciphylline] had a Z-score of −1.7519.

Regarding `Cc1cc(=O)n(-c2ccccc2)n1C` [Antipyrine], the Z-score is −0.2127.

As for `CN1CCN(CC(=O)N2c3ccccc3C(=O)Nc3cccnc32)CC1` [Pirenzepine dihydrochloride], the Z-score is reported as −1.096.

For the molecule S(−)Eticlopride hydrochloride, the Z-score is reported as −0.7335.

As for `C[N+]1(C)CCC(=C(c2ccccc2)c2ccccc2)CC1` [Diphemanil methylsulfate], the Z-score worked out at 0.6045.

`COc1ccc2c3c1O[C@H]1C[C@@H](O)C=C[C@@]31CCN(C)C2` [Galanthamine hydrobromide] yielded a Z-score of −0.7931.

Consider `COCCOC(=O)C1=C(C)NC(C)=C(C(=O)OC(C)C)C1c1cccc([N+](=O)[O-])c1` (stereo not shown) [Nimodipine], for which the Z-score was −1.6971.

Regarding `CC[N+](C)(C)Cc1ccccc1Br` [Bretylium tosylate], the Z-score was determined as 1.9055.

Consider `CCCCc1ccc2[nH]c(NC(=O)OC)nc2c1` [Parbendazole], for which the Z-score was found to be 39.1106.

Molecule `CN1CCN(C2=Nc3cc(Cl)ccc3Nc3ccccc32)CC1` [Clozapine] had a Z-score of 0.4154.

The molecule `O=C1CN(/N=C/c2ccc(-c3ccc([N+](=O)[O-])cc3)o2)C(O)=N1` [Dantrolene sodium salt] registered a Z-score of −0.3347.

`CCCCOc1ccc(CC(=O)NO)cc1` [Bufexamac] registered a Z-score of 0.678.

`CCCOc1cc(N)ccc1C(=O)OCCN(CC)CC` [Propoxycaine hydrochloride]: the Z-score is −0.3049.

In turn, `COc1cc2nc(N3CCN(C(=O)C4CCCO4)CC3)nc(N)c2cc1OC` (stereo not shown) [Terazosin hydrochloride] displayed a Z-score of −0.0723.

The molecule `Cc1cccc(C)c1N=C1NCCCS1` [Xylazine] showed a Z-score of −1.0585.

Molecule `CCN(CC)CC(=O)Nc1c(C)cccc1C.Cl` [LidocaOne hydrochloride] gave a Z-score of −0.9429.

Turning to `NC(=O)N1c2ccccc2C=Cc2ccccc21` [Carbamazepine], the Z-score worked out at 0.2892.

Molecule `CCOC(=O)[N-]c1cn(N2CCOCC2)n[o+]1` [Molsidomine] came in with a Z-score of 1.761.

As for `CC(C)(CO)[C@@H](O)C(=O)NCCCO` [Panthenol (D)], the Z-score was −0.069.

Molecule `COc1cc(CNC(=O)CCCC/C=C/C(C)C)ccc1O` [Capsaicin] had a Z-score of 0.3383.

Take `C[C@]12CC[C@H]3C(=CCc4cc(O)ccc43)[C@@H]1CCC2=O` [Equilin]: the Z-score is recorded as −1.0652.

As for `CCC(=O)O[C@]1(C(=O)SCF)[C@H](C)C[C@H]2[C@@H]3C[C@H](F)C4=CC(=O)C=C[C@]4(C)[C@@]3(F)[C@@H](O)C[C@@]21C` [Fluticasone propionate], the Z-score is given as −1.0154.

In the case of `CC1(C)S[C@@H]2[C@H](NC(=O)Cc3ccccc3)C(=O)N2[C@H]1C(=O)O.CC1(C)S[C@@H]2[C@H](NC(=O)Cc3ccccc3)C(=O)N2[C@H]1C(=O)O.c1ccc(CNCCNCc2ccccc2)cc1` [Benzathine benzylpenicillin], the Z-score was 0.238.

Turning to `NS(=O)(=O)c1cc(C(=O)O)c(NCc2ccco2)cc1Cl` [Furosemide], the Z-score worked out at 0.5074.

For the molecule `C[C@@H]1O[C@@H](O[C@H]2[C@H](Oc3cc(O)c4c(c3)O[C@H](c3ccc(O)cc3)CC4=O)O[C@H](CO)[C@@H](O)[C@@H]2O)[C@H](O)[C@H](O)[C@H]1O` [Naringin hydrate], the Z-score amounted to 2.68.

Molecule `NS(=O)(=O)c1cc2c(cc1C(F)(F)F)NCNS2(=O)=O` [Hydroflumethiazide] yielded a Z-score of 0.1855.

For the molecule `NS(=O)(=O)c1cc2c(cc1Cl)N=C(CSCc1ccccc1)NS2(=O)=O` [Benzthiazide], the Z-score is −1.594.

`CO[C@]12C[C@@H](COC(=O)c3cncc(Br)c3)CN(C)[C@@H]1Cc1cn(C)c3cccc2c13` [Nicergoline]: the Z-score was determined as 0.2433.

`O=S(=O)(O)c1cc(O)ccc1O` [Ethamsylate] yielded a Z-score of 0.04738.

For `Cc1[nH]c(=O)c(C#N)cc1-c1ccncc1` [Milrinone], the Z-score is given as −0.2851.

Foliosidine came in with a Z-score of −0.7349.

Turning to `COc1ccc2c(c1)N(C[C@H](C)CN(C)C)c1ccccc1S2.O=C(O)/C=C\C(=O)O` [Methotrimeprazine maleat salt], the Z-score worked out at 1.548.

The molecule `CCN(CC)CCc1nc(-c2ccccc2)no1.O=C(O)CC(O)(CC(=O)O)C(=O)O` [Oxalamine citrate salt] displayed a Z-score of −1.3452.

For `O=c1cc(-c2ccccc2)oc2cc(O)cc(O)c12` [Chrysin], the Z-score is −0.7142.

Molecule `CCCCC1C(=O)N(c2ccccc2)N(c2ccc(O)cc2)C1=O` (stereo not shown) [Oxyphenbutazone] registered a Z-score of −1.1165.

Take `CCCOc1ccccc1-c1nc2nn[nH]c2c(=O)[nH]1` [Zaprinast]: the Z-score is −0.4842.

The molecule `CCN(CC)CCOc1ccc(C(=C(Cl)c2ccccc2)c2ccccc2)cc1.O=C(O)CC(O)(CC(=O)O)C(=O)O` [Clomiphene citrate (Z,E), reference compound] came in with a Z-score of 1.107.

`Cc1cccc(C)c1NC(=O)C(C)N` (stereo not shown) [Tocainide hydrochloride] came in with a Z-score of 0.6038.

`CN1CCN(C(c2ccccc2)c2ccc(Cl)cc2)CC1` (stereo not shown) [(1-[(4-Chlorophenyl)phenyl-methyl]-4-methylpiperazine)]: the Z-score is 0.241.

Molecule `CCOC1O[C@H]([C@@H](COCc2ccccc2)OCc2ccccc2)[C@H](OCc2ccccc2)[C@H]1O` (stereo partly shown) [Tribenoside] showed a Z-score of −0.7171.

The molecule `Cc1cc(NC(=O)C2=C(O)c3ccccc3S(=O)(=O)N2C)no1` [Isoxicam] registered a Z-score of −0.7646.

Turning to `CN1CCOC(c2ccccc2)c2ccccc2C1` (stereo not shown) [Nefopam hydrochloride], the Z-score was −0.0308.

On to `CCOC(=O)C1=C(C)NC(C)=C(C(=O)OC)C1c1cccc([N+](=O)[O-])c1` (stereo not shown) [Nitrendipine], for which the Z-score is listed as −1.7782.

The molecule `CN[C@@H]1[C@@H](O)[C@@H](O[C@@H]2[C@@H](O)[C@H](O[C@H]3OC(CN)=CC[C@H]3N)[C@@H](N)C[C@H]2N)OC[C@]1(C)O` [Sisomicin sulfate] yielded a Z-score of −0.7041.
